Reference: article PMC9741201, “X-ray Structures and Computational Studies of Two Bioactive 2-(Adamantane-1-carbonyl)-N-substituted Hydrazine-1-carbothioamides” (Molecules, 2022)
Read-outs that look alike come from different tables or passages of the source.

Molecular target: urease (Jack bean) (Canavalia ensiformis, UniProt P07374)
Assay: in vitro urease inhibition, indophenol method
Assay type: biochemical

urease (Jack bean), sequence (P07374 whole entry, looked up): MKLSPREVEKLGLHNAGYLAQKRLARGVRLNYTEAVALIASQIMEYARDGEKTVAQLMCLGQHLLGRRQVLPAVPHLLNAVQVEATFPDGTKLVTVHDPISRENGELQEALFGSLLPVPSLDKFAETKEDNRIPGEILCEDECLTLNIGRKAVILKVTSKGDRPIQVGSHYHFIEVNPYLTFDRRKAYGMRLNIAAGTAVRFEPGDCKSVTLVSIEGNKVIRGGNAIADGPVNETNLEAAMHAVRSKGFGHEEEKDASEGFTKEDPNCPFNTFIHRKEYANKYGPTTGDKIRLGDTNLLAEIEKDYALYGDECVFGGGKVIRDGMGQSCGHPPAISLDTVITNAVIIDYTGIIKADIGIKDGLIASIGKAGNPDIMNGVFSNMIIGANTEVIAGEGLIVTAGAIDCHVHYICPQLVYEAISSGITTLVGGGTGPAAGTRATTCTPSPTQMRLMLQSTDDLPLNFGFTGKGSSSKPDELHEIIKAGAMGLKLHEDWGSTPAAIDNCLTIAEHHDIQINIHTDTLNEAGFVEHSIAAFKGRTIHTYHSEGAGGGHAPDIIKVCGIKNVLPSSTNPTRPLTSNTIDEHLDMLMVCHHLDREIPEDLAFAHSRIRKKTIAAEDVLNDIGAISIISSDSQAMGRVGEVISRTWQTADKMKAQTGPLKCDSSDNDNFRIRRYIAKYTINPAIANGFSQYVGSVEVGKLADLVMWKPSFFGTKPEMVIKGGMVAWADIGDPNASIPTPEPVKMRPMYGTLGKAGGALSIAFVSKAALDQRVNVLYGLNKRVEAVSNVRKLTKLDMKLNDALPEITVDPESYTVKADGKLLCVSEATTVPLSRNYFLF

## CC(C)(C)NC(=S)NNC(=O)C12CC3CC(CC(C3)C1)C2 [compound 1, 2-(Adamantane-1-carbonyl)-N-(tert-butyl)hydrazine-1-carbothioamide]
  IC50: 1.2 ± 0.07 µM

## O=C(NNC(=S)NC1CCCCC1)C12CC3CC(CC(C3)C1)C2 [compound 2, 2-(Adamantane-1-carbonyl)-N-cyclohexylhydrazine-1-carbothioamide]
read-out: IC50 ± SEM (μM) *
  IC50: 2.44 ± 0.11 µM
